# Test results reported in publication PMC10067855, “Sialidases and fucosidases of Akkermansia muciniphila are crucial for growth on mucin and nutrient sharing with mucus-associated gut bacteria” (Nature Communications, 2023).
# Legend:
# [1] = molecular target: T1, AmGH29B (Akkermansia muciniphila, UniProt B2ULU6); assay: inhibition of pNPFuc hydrolysis, A405; assay type: biochemical
# T1 construct: gene Amuc_0146; mature peptide lacking the signal peptide
# T1 sequence (B2ULU6 27-711): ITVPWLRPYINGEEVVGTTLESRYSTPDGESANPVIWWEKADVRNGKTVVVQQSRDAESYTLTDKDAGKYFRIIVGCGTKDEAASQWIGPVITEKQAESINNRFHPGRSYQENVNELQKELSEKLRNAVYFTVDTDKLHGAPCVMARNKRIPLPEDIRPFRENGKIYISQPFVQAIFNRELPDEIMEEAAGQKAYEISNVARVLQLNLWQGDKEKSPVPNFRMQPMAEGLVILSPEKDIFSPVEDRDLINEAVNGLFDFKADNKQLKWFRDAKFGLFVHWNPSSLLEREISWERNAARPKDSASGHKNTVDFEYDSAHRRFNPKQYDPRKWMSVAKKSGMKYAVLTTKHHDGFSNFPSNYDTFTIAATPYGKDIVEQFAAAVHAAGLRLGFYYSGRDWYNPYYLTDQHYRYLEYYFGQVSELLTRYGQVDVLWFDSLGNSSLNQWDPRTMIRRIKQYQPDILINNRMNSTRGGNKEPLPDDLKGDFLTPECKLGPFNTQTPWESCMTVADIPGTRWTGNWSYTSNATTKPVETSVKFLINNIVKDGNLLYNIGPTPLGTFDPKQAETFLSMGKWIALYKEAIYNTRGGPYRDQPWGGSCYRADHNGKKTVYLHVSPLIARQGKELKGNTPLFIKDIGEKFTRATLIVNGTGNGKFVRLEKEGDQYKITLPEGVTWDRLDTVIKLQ
# [2] = molecular target: T2, AmGH29C (Akkermansia muciniphila, UniProt B2UNB9); assay: inhibition of pNPFuc hydrolysis, A405; assay type: biochemical
# T2 construct: gene Amuc_0392; mature peptide lacking the signal peptide
# T2 sequence (B2UNB9 41-709): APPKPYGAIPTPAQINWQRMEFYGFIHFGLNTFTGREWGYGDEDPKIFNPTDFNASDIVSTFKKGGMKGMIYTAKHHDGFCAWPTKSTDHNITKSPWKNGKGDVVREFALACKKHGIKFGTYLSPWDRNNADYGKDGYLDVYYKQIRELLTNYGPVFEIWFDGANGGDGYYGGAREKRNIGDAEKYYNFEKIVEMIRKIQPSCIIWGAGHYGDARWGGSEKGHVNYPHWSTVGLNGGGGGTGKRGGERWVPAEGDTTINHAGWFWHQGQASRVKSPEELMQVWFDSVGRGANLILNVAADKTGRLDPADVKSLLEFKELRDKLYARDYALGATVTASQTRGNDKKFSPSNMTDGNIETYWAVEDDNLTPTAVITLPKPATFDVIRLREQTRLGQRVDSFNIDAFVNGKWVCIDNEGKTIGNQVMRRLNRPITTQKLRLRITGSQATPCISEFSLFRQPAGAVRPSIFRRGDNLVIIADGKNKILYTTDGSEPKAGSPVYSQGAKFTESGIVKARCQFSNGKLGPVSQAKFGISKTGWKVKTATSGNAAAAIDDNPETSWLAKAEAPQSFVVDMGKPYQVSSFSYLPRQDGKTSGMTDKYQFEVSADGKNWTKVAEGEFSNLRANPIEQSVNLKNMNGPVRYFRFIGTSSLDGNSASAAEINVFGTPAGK
smiles,measurement,setting,value
"C[C@@H]1NC[C@@H](O)[C@H](O)[C@@H]1O [DFJ, 1-Deoxyfuconojirimycin]",IC50,[1],< 54 µM
same,IC50,[2],< 54 µM
